Assay results from patent US7763580B2, “Methods for treating conditions associated with the accumulation of excess extracellular matrix” (University of Utah Research Foundation, priority 1999, dated 2010).

Key:
[1] = system: adult human mesangial cells; experiment: Renin-induced TGFβ and fibronectin production by adult human mesangial cells (ELISA); type: cell-based; conditions: 10^−5 M inhibitor added at zero time with 10^−7 M human recombinant renin, adult cells, FIG. 7
Experimental: Primary cultures of adult human mesangial cells were grown from human nephrectomy tissues using standard methods. Cells were passaged 4-7 times and then plated (3,000 cell/cm^2) in 12 well plates in 2 ml of medium (Mesangial Basal Medium (Clonetics Corp.) containing 5% FCS, 10 μg/ml penicillin and 100 μg/ml streptomycin) and allowed to grow to 70% confluency for 48 hours at 37EC, 5% CO2. Cultures were washed three times using sterile phosphate buffered saline at room temperature and then 2 ml/well of serum free MBM medium to induce quiescence. After 48 hours, the serum-free medium was removed and 2 ml/well of fresh serum-free medium was added for 24 hours. Human recombinant renin (HrRenin, Hoffman-La Roche Ltd., Basel, Switzerland) in concentrations from 10^−6 to 10^−12 M was added to each well for 24 hours. A blank (no HrRenin) was used as a control. Cells and supernatants were harvested by centrifugation after 24 hrs of culture and frozen at ^−70EC until analysis.
The total production and release of TGFβ into the culture supernatant was measured using an ELISA kit (R & D Systems). Induction of the matrix protein fibronectin (Fn) in the supernatant was measured using anti-fibronectin antibodies in an ELISA to provide further confirmation of induction of TGFβ. Renin-induced induction of TGFβ, fibronectin and PAI-1 mRNA were measured over time using semi-quantitative RT-PCR in a multiplex system where multiple cDNAs are amplified simultaneously according to Dostal et al., Anal. Biochem. 223:239-250 (1994), incorporated by reference herein Determinations were done in triplicate mesangial cell cultures.
Renin inhibitor Ro42-5892 (Hoffman-LaRoche, Basel, Switzerland), Losartan™ (Merck Pharmaceuticals, West Point, Pa.), Enalapril™ (Sigma Chemical Co., St. Louis, Mo., Prod. No. E6888), or TGFβ1 neutralizing antibody (R & D Systems) were added in the amounts indicated below to separate wells in triplicate to block the renin cascade at different sites after stimulation by renin: • 10^−5 M Renin Inhibitor R042-5892 (Hoffman-LaRoche) • 10^−5 M Enalapril™ (Sigma Chemical Co., St. Louis, Mo.) • 10^−5 M Losartan™ (Merck Pharmaceuticals, West Point, Pa.) • Controls included neutralizing antibody to TGFβ (ATG) and control IgG (TgG)
These inhibitors were added at zero time with 10^−7 M human recombinant renin (Hoffman-LaRoche).

[2] = system: anti-Thy 1 glomerulonephritis; experiment: Glomerular mRNA expression (Northern hybridization); type: in vivo, Sprague Dawley rats; conditions: enalapril alone
Experimental: These experiments were performed on male Sprague Dawley rats (200-250 g) obtained from the Sasco colony of Charles River Laboratories (Wilmington, Mass., USA). Animal housing and care were in accordance with the NIH Guide for the Care and Use of Laboratory Animals, NIH Publication No. 85-23, 1985. Animals were fed a normal protein diet (22% protein, Teklad No. 86 550, Teklad Premier Laboratory Diets, Madison, Wis., USA). Glomerulonephritis was induced by tail vein injection of 2.25 mg/Kg of the monoclonal anti-Thy 1.1 antibody OX-7 (NCCC, Biovest International Inc, Minneapolis, Minn., USA). OX-7 binds to a Thy 1-like epitope on the surface of mesangial cells causing complement-dependent cell lysis followed by fibrotic tissue repair (Bagchus et al., Lab Invest. 55:680-687 (1986)). Control animals were injected with similar volumes of phosphate-buffered saline (PBS). Groups of 8 rats were assigned and treated as outlined in Table 2. […] Changes in mRNA levels were determined by first correcting for the densitometric intensity of 18S for each sample. For comparison, this ratio was set at unity for normal control samples and other lanes on the same gel were expressed as fold increases over this value. […] The percent reduction in disease severity in a treated group was calculated as:

[3] = system: anti-Thy 1 model; conditions: monotherapy, anti-Thy 1 model (Peters et al.); L-arginine 1% in drinking water; cited from earlier work

In the case of CCOC(=O)[C@H](CCc1ccccc1)N[C@@H](C)C(=O)N1CCC[C@H]1C(=O)O [enalapril], the “renin-induced increase in TGFβ production” value [1] is listed as “does not reduce the renin-induced increase in TGFβ production”, the “reduction of TGF-β1 mRNA” value [2] is listed as 29% and the “reduction of markers of fibrotic disease” value [3] is listed as “about 50%”.
